Like-named read-outs stand apart in the source and are kept apart here.
Legend:
Assay in all cases: biochemical
Format in all cases: binding
[1] = target: panel of 468 diverse kinases (Plasmodium falciparum, UniProt P61075); details: read-out: Percent Control
[2] = target: panel of 468 diverse kinases (Homo sapiens, UniProt P00533, L858R); details: EGFR(L858R); 1000 nM; read-out: Percent Control
[3] = target: panel of 468 diverse kinases (Homo sapiens, UniProt P28482); details: ERK2; 1000 nM; read-out: Percent Control
[4] = target: panel of 468 diverse kinases (Homo sapiens, UniProt P51812); details: 1000 nM, read-out: Percent Control
[5] = target: panel of 468 diverse kinases (Homo sapiens, UniProt P07949); details: RET; 1000 nM; read-out: Percent Control
[6] = target: panel of 468 diverse kinases (Homo sapiens, UniProt Q9UPZ9); details: ICK; 1000 nM; read-out: Percent Control
[7] = target: panel of 468 diverse kinases (Homo sapiens, UniProt P0C1S8); details: WEE2; 1000 nM; read-out: Percent Control
[8] = target: panel of 468 diverse kinases (Homo sapiens, UniProt P29597); details: 1000 nM, read-out: Percent Control
[9] = target: panel of 468 diverse kinases (Homo sapiens, UniProt Q16512); details: PKN1; 1000 nM; read-out: Percent Control
[10] = target: panel of 468 diverse kinases (Homo sapiens, UniProt P51817); details: PRKX; 1000 nM; read-out: Percent Control
[11] = target: panel of 468 diverse kinases (Homo sapiens, UniProt Q12852); details: DLK; 1000 nM; read-out: Percent Control
[12] = target: panel of 468 diverse kinases (Homo sapiens, UniProt O14757); details: CHEK1; 1000 nM; read-out: Percent Control
[13] = target: panel of 468 diverse kinases (Homo sapiens, UniProt Q16832); details: DDR2; 1000 nM; read-out: Percent Control
[14] = target: panel of 468 diverse kinases (Homo sapiens, UniProt Q13557); details: CAMK2D; 1000 nM; read-out: Percent Control
[15] = target: panel of 468 diverse kinases (Homo sapiens, UniProt P06239); details: LCK; 1000 nM; read-out: Percent Control
[16] = target: panel of 468 diverse kinases (Homo sapiens, UniProt P31751); details: AKT2; 1000 nM; read-out: Percent Control
[17] = target: panel of 468 diverse kinases (Homo sapiens, UniProt Q15208); details: NDR1; 1000 nM; read-out: Percent Control
[18] = target: panel of 468 diverse kinases (Homo sapiens, UniProt P00519, H396P); details: 1000 nM, read-out: Percent Control
[19] = target: panel of 468 diverse kinases (Homo sapiens, UniProt P35626); details: GRK3; 1000 nM; read-out: Percent Control
[20] = target: panel of 468 diverse kinases (Homo sapiens, UniProt Q8TDR2); details: STK35; 1000 nM; read-out: Percent Control
[21] = target: panel of 468 diverse kinases (Homo sapiens, UniProt P08581, Y1235D); details: MET(Y1235D); 1000 nM; read-out: Percent Control
[22] = target: panel of 468 diverse kinases (Homo sapiens, UniProt Q13043); details: MST1; 1000 nM; read-out: Percent Control
[23] = target: panel of 468 diverse kinases (Homo sapiens, UniProt O75385); details: ULK1; 1000 nM; read-out: Percent Control
[24] = target: panel of 468 diverse kinases (Homo sapiens, UniProt Q9BYP7); details: WNK3; 1000 nM; read-out: Percent Control
[25] = target: panel of 468 diverse kinases (Homo sapiens, UniProt P53671); details: LIMK2; 1000 nM; read-out: Percent Control
[26] = target: panel of 468 diverse kinases (Homo sapiens, UniProt Q9H2X6); details: HIPK2; 1000 nM; read-out: Percent Control
[27] = target: panel of 468 diverse kinases (Homo sapiens, UniProt Q9NY57); details: YANK2; 1000 nM; read-out: Percent Control
[28] = target: panel of 468 diverse kinases (Homo sapiens, UniProt Q9Y6M4); details: CSNK1G3; 1000 nM; read-out: Percent Control
[29] = target: panel of 468 diverse kinases (Homo sapiens, UniProt P36896); details: ACVR1B; 1000 nM; read-out: Percent Control
[30] = target: panel of 468 diverse kinases (Homo sapiens, UniProt P42336, E542K); details: PIK3CA(E542K); 1000 nM; read-out: Percent Control

Chain of panel of 468 diverse kinases (Homo sapiens, UniProt P36896) (P36896 24-505 limits assumed): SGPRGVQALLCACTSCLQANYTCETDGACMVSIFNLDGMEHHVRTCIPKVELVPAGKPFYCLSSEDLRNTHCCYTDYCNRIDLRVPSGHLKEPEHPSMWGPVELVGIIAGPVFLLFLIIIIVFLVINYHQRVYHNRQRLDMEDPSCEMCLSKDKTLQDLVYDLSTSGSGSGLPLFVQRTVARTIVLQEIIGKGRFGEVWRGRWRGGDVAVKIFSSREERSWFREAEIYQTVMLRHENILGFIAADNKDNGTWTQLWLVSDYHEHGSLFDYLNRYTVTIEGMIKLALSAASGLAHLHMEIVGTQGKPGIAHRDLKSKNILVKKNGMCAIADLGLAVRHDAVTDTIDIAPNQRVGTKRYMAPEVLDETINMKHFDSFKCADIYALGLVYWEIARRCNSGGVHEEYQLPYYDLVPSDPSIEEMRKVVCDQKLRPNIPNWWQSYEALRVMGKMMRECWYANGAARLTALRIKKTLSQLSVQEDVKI
Chain of panel of 468 diverse kinases (Homo sapiens, UniProt Q15208) (Q15208 2-465 limits assumed): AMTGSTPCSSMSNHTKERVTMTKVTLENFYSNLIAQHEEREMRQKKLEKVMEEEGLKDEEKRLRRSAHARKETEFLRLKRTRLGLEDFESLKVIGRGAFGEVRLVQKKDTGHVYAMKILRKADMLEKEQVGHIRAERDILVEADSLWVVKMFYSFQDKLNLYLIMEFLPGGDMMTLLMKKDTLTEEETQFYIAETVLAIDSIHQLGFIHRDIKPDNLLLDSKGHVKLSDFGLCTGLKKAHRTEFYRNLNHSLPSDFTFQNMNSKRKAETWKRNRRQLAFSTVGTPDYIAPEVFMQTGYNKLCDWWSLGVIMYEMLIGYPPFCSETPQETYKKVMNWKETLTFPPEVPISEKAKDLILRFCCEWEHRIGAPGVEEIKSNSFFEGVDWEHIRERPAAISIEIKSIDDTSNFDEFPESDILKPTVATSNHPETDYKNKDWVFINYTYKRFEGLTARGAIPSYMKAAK
Chain of panel of 468 diverse kinases (Homo sapiens, UniProt P08581, Y1235D) (P08581 25-1390 Y1235D limits assumed): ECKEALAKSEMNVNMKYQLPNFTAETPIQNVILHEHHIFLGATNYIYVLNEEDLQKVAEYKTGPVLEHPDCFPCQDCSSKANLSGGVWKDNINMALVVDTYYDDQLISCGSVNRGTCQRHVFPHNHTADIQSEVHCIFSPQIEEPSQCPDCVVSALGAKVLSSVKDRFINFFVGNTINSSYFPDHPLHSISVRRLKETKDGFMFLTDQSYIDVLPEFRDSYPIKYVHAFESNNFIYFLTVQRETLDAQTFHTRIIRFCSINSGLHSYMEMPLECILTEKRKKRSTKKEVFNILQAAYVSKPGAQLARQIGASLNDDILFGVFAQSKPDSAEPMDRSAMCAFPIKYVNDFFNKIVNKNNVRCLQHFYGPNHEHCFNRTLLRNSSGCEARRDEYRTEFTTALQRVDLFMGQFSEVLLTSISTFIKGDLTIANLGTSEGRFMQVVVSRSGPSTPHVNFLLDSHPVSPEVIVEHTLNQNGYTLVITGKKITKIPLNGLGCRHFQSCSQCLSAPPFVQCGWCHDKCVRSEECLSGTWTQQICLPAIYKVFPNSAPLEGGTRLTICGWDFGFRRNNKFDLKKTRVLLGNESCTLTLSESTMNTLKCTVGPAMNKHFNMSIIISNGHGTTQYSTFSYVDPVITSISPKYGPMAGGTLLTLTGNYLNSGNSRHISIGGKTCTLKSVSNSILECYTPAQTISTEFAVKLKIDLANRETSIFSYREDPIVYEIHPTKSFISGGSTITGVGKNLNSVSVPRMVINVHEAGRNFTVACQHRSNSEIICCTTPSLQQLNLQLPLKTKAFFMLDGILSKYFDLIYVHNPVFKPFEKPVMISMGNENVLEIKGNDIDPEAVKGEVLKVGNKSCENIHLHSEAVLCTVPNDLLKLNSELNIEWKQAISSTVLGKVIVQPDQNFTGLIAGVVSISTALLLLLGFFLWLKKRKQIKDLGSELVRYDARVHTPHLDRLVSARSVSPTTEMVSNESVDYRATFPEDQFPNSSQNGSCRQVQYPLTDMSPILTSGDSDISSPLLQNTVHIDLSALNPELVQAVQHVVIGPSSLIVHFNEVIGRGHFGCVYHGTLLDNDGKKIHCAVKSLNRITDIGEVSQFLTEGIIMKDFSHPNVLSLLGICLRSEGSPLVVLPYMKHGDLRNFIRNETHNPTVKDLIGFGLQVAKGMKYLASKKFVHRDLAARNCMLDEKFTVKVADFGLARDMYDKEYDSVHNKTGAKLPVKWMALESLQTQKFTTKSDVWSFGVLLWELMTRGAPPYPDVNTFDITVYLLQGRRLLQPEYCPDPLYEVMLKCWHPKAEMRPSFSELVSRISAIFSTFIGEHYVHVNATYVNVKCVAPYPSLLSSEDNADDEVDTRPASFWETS
Chain of panel of 468 diverse kinases (Homo sapiens, UniProt P06239) (P06239 2-509 limits assumed): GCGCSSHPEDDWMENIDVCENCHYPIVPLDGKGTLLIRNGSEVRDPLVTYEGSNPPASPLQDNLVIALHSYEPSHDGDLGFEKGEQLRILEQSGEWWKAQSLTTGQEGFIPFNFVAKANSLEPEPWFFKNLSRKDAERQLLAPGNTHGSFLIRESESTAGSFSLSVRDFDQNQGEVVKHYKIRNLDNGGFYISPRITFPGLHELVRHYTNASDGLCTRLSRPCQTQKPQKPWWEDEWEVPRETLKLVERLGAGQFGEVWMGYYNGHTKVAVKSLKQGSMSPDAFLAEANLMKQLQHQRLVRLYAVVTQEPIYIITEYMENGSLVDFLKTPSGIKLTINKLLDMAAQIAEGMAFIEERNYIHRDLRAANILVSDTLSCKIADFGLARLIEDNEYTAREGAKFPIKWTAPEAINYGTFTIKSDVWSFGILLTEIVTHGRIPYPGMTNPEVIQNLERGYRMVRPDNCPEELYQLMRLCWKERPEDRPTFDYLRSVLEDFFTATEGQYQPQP
Chain of panel of 468 diverse kinases (Homo sapiens, UniProt Q16512) (Q16512 2-942 limits assumed): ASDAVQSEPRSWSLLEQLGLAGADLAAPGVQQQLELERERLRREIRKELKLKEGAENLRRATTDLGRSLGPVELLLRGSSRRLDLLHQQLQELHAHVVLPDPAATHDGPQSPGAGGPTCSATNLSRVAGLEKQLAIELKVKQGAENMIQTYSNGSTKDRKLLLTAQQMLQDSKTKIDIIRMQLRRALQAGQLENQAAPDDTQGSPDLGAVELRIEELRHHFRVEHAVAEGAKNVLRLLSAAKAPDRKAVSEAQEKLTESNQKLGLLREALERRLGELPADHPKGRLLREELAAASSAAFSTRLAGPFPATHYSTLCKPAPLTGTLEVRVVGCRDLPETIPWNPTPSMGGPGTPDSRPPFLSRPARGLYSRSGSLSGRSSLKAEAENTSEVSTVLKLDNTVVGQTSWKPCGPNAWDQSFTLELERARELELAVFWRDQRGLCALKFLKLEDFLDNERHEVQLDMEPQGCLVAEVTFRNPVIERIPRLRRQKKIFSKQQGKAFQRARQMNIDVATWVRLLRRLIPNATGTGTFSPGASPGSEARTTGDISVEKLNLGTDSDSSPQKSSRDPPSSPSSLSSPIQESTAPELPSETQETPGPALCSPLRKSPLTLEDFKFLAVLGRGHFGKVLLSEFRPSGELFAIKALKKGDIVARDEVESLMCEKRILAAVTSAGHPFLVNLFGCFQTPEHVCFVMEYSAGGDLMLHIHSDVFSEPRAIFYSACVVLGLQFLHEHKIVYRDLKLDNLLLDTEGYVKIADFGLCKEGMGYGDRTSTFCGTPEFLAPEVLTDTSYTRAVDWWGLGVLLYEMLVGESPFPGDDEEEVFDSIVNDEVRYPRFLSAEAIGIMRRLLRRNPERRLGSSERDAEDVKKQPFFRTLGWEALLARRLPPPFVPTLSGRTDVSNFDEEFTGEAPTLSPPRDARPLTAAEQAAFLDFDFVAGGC
Chain of panel of 468 diverse kinases (Homo sapiens, UniProt Q16832) (Q16832 22-855 limits assumed): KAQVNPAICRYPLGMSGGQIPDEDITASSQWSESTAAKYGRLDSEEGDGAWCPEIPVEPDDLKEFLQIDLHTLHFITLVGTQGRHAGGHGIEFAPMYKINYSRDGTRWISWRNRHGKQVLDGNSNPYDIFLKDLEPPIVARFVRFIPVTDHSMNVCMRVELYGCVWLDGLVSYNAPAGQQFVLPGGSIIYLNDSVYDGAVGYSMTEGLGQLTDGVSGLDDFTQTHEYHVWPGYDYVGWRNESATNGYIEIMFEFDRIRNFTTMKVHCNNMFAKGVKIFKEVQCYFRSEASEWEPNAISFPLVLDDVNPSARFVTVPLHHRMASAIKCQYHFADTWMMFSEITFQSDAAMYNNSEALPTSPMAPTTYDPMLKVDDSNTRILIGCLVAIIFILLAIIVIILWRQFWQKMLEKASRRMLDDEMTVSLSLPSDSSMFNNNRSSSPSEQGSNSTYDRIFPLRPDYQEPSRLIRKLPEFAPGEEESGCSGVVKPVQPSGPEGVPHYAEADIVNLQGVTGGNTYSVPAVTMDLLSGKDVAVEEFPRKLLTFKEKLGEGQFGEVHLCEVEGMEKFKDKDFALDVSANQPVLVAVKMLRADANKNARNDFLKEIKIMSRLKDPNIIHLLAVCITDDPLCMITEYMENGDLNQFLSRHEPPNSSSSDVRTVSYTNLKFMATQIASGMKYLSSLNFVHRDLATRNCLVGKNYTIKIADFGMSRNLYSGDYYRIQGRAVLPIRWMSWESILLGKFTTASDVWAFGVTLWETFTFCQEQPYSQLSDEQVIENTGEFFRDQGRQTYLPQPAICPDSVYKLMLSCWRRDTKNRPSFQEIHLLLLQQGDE
Chain of panel of 468 diverse kinases (Homo sapiens, UniProt P28482) (P28482 2-360 limits assumed): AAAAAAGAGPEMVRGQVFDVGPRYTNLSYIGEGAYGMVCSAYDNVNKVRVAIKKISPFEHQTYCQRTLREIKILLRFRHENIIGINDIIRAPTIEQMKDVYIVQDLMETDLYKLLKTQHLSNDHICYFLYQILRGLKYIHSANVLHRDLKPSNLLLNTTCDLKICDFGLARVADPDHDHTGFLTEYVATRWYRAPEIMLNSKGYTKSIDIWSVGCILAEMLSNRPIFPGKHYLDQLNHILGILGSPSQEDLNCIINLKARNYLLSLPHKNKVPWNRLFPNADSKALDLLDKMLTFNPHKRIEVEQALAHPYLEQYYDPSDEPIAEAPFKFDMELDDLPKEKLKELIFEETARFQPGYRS

COc1cc2nc(NC3CC3)nc(NC3CCN(C(C)C)CC3)c2cc1OC [Formula IV]
remaining activity at 1 µM [1]: 48%
remaining activity at 1 µM [2]: 99%
remaining activity at 1 µM [3]: 81%
remaining activity at 1 µM ([4]; RSK2(Kin.Dom.1-N-terminal)): 67%
remaining activity at 1 µM ([4]; RSK2(Kin.Dom.2-C-terminal)): 53%
remaining activity at 1 µM [5]: 100%
remaining activity at 1 µM [6]: 100%
remaining activity at 1 µM [7]: 96%
remaining activity at 1 µM ([8]; TYK2(JH1domain-catalytic)): 37%
remaining activity at 1 µM ([8]; TYK2(JH2domain-pseudokinase)): 79%
remaining activity at 1 µM [9]: 99%
remaining activity at 1 µM [10]: 100%
remaining activity at 1 µM [11]: 62%
remaining activity at 1 µM [12]: 93%
remaining activity at 1 µM [13]: 66%
remaining activity at 1 µM [14]: 89%
remaining activity at 1 µM [15]: 100%
remaining activity at 1 µM [16]: 89%
remaining activity at 1 µM [17]: 81%
remaining activity at 1 µM ([18]; ABL1 (H396P)-nonphosphorylated): 69%
remaining activity at 1 µM ([18]; ABL1(H396P)-phosphorylated): 68%
remaining activity at 1 µM [19]: 53%
remaining activity at 1 µM [20]: 94%
remaining activity at 1 µM [21]: 93%
remaining activity at 1 µM [22]: 84%
remaining activity at 1 µM [23]: 51%
remaining activity at 1 µM [24]: 69%
remaining activity at 1 µM [25]: 96%
remaining activity at 1 µM [26]: 64%
remaining activity at 1 µM [27]: 56%
remaining activity at 1 µM [28]: 100%
remaining activity at 1 µM [29]: 94%
remaining activity at 1 µM [30]: 70%
